In ChEMBL document CHEMBL5244223, “l,8-Naphthalimide based DNA intercalators and anticancer agents. A systematic review from 2007 to 2017” (Eur J Med Chem, 2018):

Columns and labels:
HeLa [1] = assay: Cytotoxicity against human HeLa cells assessed as inhibition of cell growth incubated for 48 hrs by MTT assay; assay type: functional, cell-based
A549 = assay: Cytotoxicity against human A549 cells assessed as inhibition of cell growth incubated for 48 hrs by MTT assay; assay type: functional, cell-based; conditions: A549, 48 h
HepG2 = assay: Antiproliferative activity against human HepG2 cells assessed as inhibition of cell proliferation incubated for 48 hrs by MTT assay; assay type: functional, cell-based; conditions: HepG2, 48 h
SMMC-7721 = assay: Antiproliferative activity against human SMMC-7721 cells assessed as inhibition of cell proliferation incubated for 48 hrs by MTT assay; assay type: functional, cell-based; conditions: SMMC-7721, 48 h
MDA-MB-231 = assay: Antiproliferative activity against human MDA-MB-231 cells assessed as inhibition of cell proliferation incubated for 48 hrs by MTT assay; assay type: functional, cell-based; conditions: MDA-MB-231, 48 h
L1210 = assay: Antiproliferative activity against mouse L1210 cells assessed as inhibition of cell proliferation incubated for 48 hrs by coulter counter assay; assay type: functional, cell-based; conditions: L1210, 48 h
CCRF-CEM = assay: Antiproliferative activity against human CEM cells assessed as inhibition of cell proliferation incubated for 48 hrs by coulter counter assay; assay type: functional, cell-based
HeLa [2] = assay: Antiproliferative activity against human HeLa cells assessed as inhibition of cell proliferation incubated for 48 hrs by coulter counter assay; assay type: functional, cell-based
[3] = Antiproliferative activity against human HMEC-1 cells assessed as inhibition of cell proliferation incubated for 48 hrs by coulter counter assay; assay type: toxicity, cell-based
HCT-116 = assay: Antiproliferative activity against human HCT-116 cells assessed as inhibition of cell proliferation incubated for 48 hrs by MTT assay; assay type: functional, cell-based; conditions: HCT-116, 48 h
K562 = assay: Antiproliferative activity against human K562 cells assessed as inhibition of cell proliferation incubated for 48 hrs by MTT assay; assay type: functional, cell-based; conditions: K562, 48 h

SMILES | IC50 (HeLa [1]) | IC50 (A549) | IC50 (L1210) | IC50 (CCRF-CEM) | IC50 (HeLa [2]) | IC50 at 48 h [3] | further results
COc1cc(-c2cc(C(F)(F)F)nn2-c2ccc3c4c(cccc24)C(=O)N(CCN(C)C)C3=O)cc(OC)c1OC | 5.06 µM | 5.06 µM |  |  |  |  | 
CCOc1cc(OCC)cc(-c2cc(C(F)(F)F)nn2-c2ccc3c4c(cccc24)C(=O)N(CCN(C)C)C3=O)c1 | 5.06 µM | 5.06 µM |  |  |  |  | 
CN(C)CCNc1ncnc2c1cc1c3c(cccc32)C(=O)N(CCN(C)C)C1=O |  |  |  |  |  |  | IC50 (HepG2): 1.12 µM; IC50 (SMMC-7721): 1.12 µM; IC50 (MDA-MB-231): 1.12 µM
CCOP(=O)(CCCn1cc(CN2C(=O)c3cccc4cc([N+](=O)[O-])cc(c34)C2=O)nn1)OCC |  |  | > 250 µM | > 250 µM | > 250 µM | > 250 µM | 
COc1ccc(-c2cc(C(F)(F)F)nn2-c2ccc3c4c(cccc24)C(=O)N(CCN(C)C)C3=O)cc1 | 5.06 µM | 5.06 µM |  |  |  |  | 
CCOP(=O)(Cn1cc(CN2C(=O)c3cccc4cccc(c34)C2=O)nn1)OCC |  |  | > 250 µM | > 250 µM | > 250 µM | > 250 µM | 
CCOP(=O)(CCOCCn1cc(CN2C(=O)c3cccc4cc([N+](=O)[O-])cc(c34)C2=O)nn1)OCC |  |  | > 250 µM | > 250 µM | > 250 µM | > 250 µM | 
O=C1c2cccc3c2c(cc2c(=O)[nH]cnc23)C(=O)N1CCCCN1CCOCC1 |  |  |  |  |  |  | IC50 (HepG2): 2.64 µM; IC50 (SMMC-7721): 2.64 µM; IC50 (MDA-MB-231): 2.64 µM
COc1cc(OC)cc(-c2cc(C(F)(F)F)nn2-c2ccc3c4c(cccc24)C(=O)N(CCN(C)C)C3=O)c1 | 5.06 µM | 5.06 µM |  |  |  |  | 
CCOP(=O)(Cn1cc(CN2C(=O)c3cccc4cc([N+](=O)[O-])cc(c34)C2=O)nn1)OCC |  |  | > 250 µM | > 250 µM | > 250 µM | > 250 µM | 
CN(C)CCN1C(=O)c2cccc3c2c(cc2c(NCCCCN)ncnc23)C1=O |  |  |  |  |  |  | IC50 (HepG2): 1.12 µM; IC50 (SMMC-7721): 1.12 µM; IC50 (MDA-MB-231): 1.12 µM
CCOP(=O)(CCOCCn1cc(CN2C(=O)c3cccc4cccc(c34)C2=O)nn1)OCC |  |  | > 250 µM | > 250 µM | > 250 µM | > 250 µM | 
NCCCNCC(=O)NCCCN1C(=O)c2cccc3cccc(c23)C1=O |  |  |  |  |  |  | IC50 (HepG2): 2.86 µM; IC50 (HCT-116): 2.86 µM; IC50 (K562): 2.86 µM; IC50 (MDA-MB-231): 2.86 µM
CCOc1cccc(-c2cc(C(F)(F)F)nn2-c2ccc3c4c(cccc24)C(=O)N(CCN(C)C)C3=O)c1 | 5.06 µM | 5.06 µM |  |  |  |  | 
CCOP(=O)(CCCCn1cc(CN2C(=O)c3cccc4c(Br)ccc(c34)C2=O)nn1)OCC |  |  | > 250 µM | > 250 µM | > 250 µM | > 250 µM | 
CCOP(=O)(CC(=O)NCn1cc(CN2C(=O)c3cccc4cc([N+](=O)[O-])cc(c34)C2=O)nn1)OCC |  |  | > 250 µM | > 250 µM | > 250 µM | > 250 µM | 
CCOP(=O)(CCCn1cc(CN2C(=O)c3cccc4c(Br)ccc(c34)C2=O)nn1)OCC |  |  | > 250 µM | > 250 µM | > 250 µM | > 250 µM | 
CCOP(=O)(CCOCCn1cc(CN2C(=O)c3cccc4c(Br)ccc(c34)C2=O)nn1)OCC |  |  | > 250 µM | > 250 µM | > 250 µM | > 250 µM | 
CCCCN1C(=O)c2cccc3c2c(cc2c(=O)[nH]cnc23)C1=O |  |  |  |  |  |  | IC50 (HepG2): 2.64 µM; IC50 (SMMC-7721): 2.64 µM; IC50 (MDA-MB-231): 2.64 µM
CCCCCCOC(=O)c1ccc2c3c(cccc13)C(=O)N(CCN(C)C)C2=O |  |  |  |  |  |  | IC50 (HepG2): > 50 µM; IC50 (SMMC-7721): > 50 µM; IC50 (HCT-116): > 50 µM; IC50 (K562): > 50 µM
COc1cccc(-c2cc(C(F)(F)F)nn2-c2ccc3c4c(cccc24)C(=O)N(CCN(C)C)C3=O)c1 | 5.06 µM | 5.06 µM |  |  |  |  | 
CCCOc1cc(OCCC)cc(-c2cc(C(F)(F)F)nn2-c2ccc3c4c(cccc24)C(=O)N(CCN(C)C)C3=O)c1 | 5.06 µM | 5.06 µM |  |  |  |  | 
NCCCNCCCN1C(=O)c2cccc3c2c(cc2c(=O)[nH]cnc23)C1=O |  |  |  |  |  |  | IC50 (HepG2): 2.64 µM; IC50 (SMMC-7721): 2.64 µM; IC50 (MDA-MB-231): 2.64 µM
CN(C)CCN1C(=O)c2cccc3c2c(cc2c(=O)[nH]cnc23)C1=O |  |  |  |  |  |  | IC50 (HepG2): 2.64 µM; IC50 (SMMC-7721): 2.64 µM; IC50 (MDA-MB-231): 2.64 µM
CCCCOc1cc(OCCCC)cc(-c2cc(C(F)(F)F)nn2-c2ccc3c4c(cccc24)C(=O)N(CCN(C)C)C3=O)c1 | 5.06 µM | 5.06 µM |  |  |  |  | 
CCOP(=O)(CC(O)Cn1cc(CN2C(=O)c3cccc4cccc(c34)C2=O)nn1)OCC (stereo not drawn) |  |  | > 250 µM | > 250 µM | > 250 µM | > 250 µM | 
CCOP(=O)(CCn1cc(CN2C(=O)c3cccc4cccc(c34)C2=O)nn1)OCC |  |  | > 250 µM | > 250 µM | > 250 µM | > 250 µM | 
CN(C)CCN1C(=O)c2cccc3c(-n4nc(C(F)(F)F)cc4-c4ccccc4)ccc(c23)C1=O | 5.06 µM | 5.06 µM |  |  |  |  | 
